Results reported in US20230085307A1, “PYRIDAZINONE COMPOUND AND HERBICIDE” (NISSAN CHEMICAL CORPORATION, priority 2019, published 2023).

Legend:
Italian ryegrass [1] = test: Test Example 4: herbicidal effect by soil treatment (Table 19, symbol K); type: in vivo, Italian ryegrass (Lolium multiflorum); conditions: amount of applied herbicide 320 g/ha
Summary of the method: (§1)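 Applied as a water-diluted emulsion, the compound was sprayed onto soil covering newly sown seeds. Evaluation came three weeks after application, in a greenhouse held at 25° C. to 30° C.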

Japanese bulrush = test: Test Example 1: herbicidal activity, application before weed generation under submerged conditions (Table 16, symbol B); type: in vivo, Japanese bulrush (Schoenoplectus juncoides); conditions: amount of applied herbicide 320 g/ha
Summary of the method: (§2)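 Emulsion formulation, water-diluted to set dose, was put onto the flooded surface (4 cm depth, alluvial soil) the same day weeds were sown and 2.5-leaf rice transplanted. After 3 weeks at 25-30 °C under glass, each species was rated 0 (≤5% kill) to 5 (≥90% kill).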

blackgrass [2] = test: Test Example 5: herbicidal effect by foliage application, plastic box (Table 20, symbol J); type: in vivo, blackgrass (Alopecurus myosuroides); conditions: foliage application, 320 g/ha, three weeks after application
Summary of the method: (§3)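 Sow seeds spot-wise in sterilized diluvial soil; cover with ~1.5 cm soil. Grow 14 days in greenhouse, 25° C. to 30° C. Spray foliage with emulsion diluted to predetermined amount. Rate effect after 3 weeks.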

green foxtail [3] = test: Test Example 4: herbicidal effect by soil treatment (Table 19, symbol G); type: in vivo, green foxtail (Setaria viridis); conditions: amount of applied herbicide 320 g/ha
Summary of the method: as §1

lambsquarters [4] = test: Test Example 5: herbicidal effect by foliage application, plastic box (Table 20, symbol O); type: in vivo, lambsquarters (Chenopodium album); conditions: foliage application, 320 g/ha, three weeks after application
Summary of the method: as §3

rice flat sedge = test: Test Example 3: herbicidal effect by foliage application, Wagner pot (Table 18, symbol E); type: in vivo, rice flat sedge (Cyperus iria)
Summary of the method: (§4)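 Plants were sown in alluvial soil held under 0.1–0.5 cm standing water and grown 14 days in a greenhouse at 25–30 °C. An emulsifiable formulation, water-diluted to the set dose, was then sprayed onto the foliage, and effects were scored three weeks later using previously defined criteria.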

blackgrass [5] = test: Test Example 4: herbicidal effect by soil treatment (Table 19, symbol J); type: in vivo, blackgrass (Alopecurus myosuroides); conditions: amount of applied herbicide 320 g/ha
Summary of the method: as §1

wild oat [6] = test: Test Example 5: herbicidal effect by foliage application, plastic box (Table 20, symbol I); type: in vivo, wild oat (Avena fatua); conditions: foliage application, 320 g/ha, three weeks after application
Summary of the method: as §3

Italian ryegrass [7] = test: Test Example 5: herbicidal effect by foliage application, plastic box (Table 20, symbol K); type: in vivo, Italian ryegrass (Lolium multiflorum); conditions: foliage application, 320 g/ha, three weeks after application
Summary of the method: as §3

oval-leafed pondweed = test: Test Example 1: herbicidal activity, application before weed generation under submerged conditions (Table 16, symbol C); type: in vivo, oval-leafed pondweed (Monochoria vaginalis); conditions: amount of applied herbicide 320 g/ha
Summary of the method: as §2

late watergrass = test: Test Example 1: herbicidal activity, application before weed generation under submerged conditions (Table 16, symbol A); type: in vivo, late watergrass (Echinochloa oryzicola); conditions: amount of applied herbicide 320 g/ha
Summary of the method: as §2

wild oat [8] = test: Test Example 4: herbicidal effect by soil treatment (Table 19, symbol I); type: in vivo, wild oat (Avena fatua); conditions: amount of applied herbicide 320 g/ha
Summary of the method: as §1

redroot pigweed [9] = test: Test Example 5: herbicidal effect by foliage application, plastic box (Table 20, symbol N); type: in vivo, redroot pigweed (Amaranthus retroflexus); conditions: foliage application, 320 g/ha, three weeks after application
Summary of the method: as §3

southern crabgrass [10] = test: Test Example 5: herbicidal effect by foliage application, plastic box (Table 20, symbol F); type: in vivo, southern crabgrass (Digitaria ciliaris); conditions: foliage application, 320 g/ha, three weeks after application
Summary of the method: as §3

persian speedwell [11] = test: Test Example 4: herbicidal effect by soil treatment (Table 19, symbol R); type: in vivo, Persian speedwell (Veronica persica); conditions: amount of applied herbicide 320 g/ha
Summary of the method: as §1

velvetleaf [12] = test: Test Example 4: herbicidal effect by soil treatment (Table 19, symbol M); type: in vivo, velvetleaf (Abutilon theophrasti); conditions: amount of applied herbicide 320 g/ha
Summary of the method: as §1

Chinese sprangletop = test: Test Example 3: herbicidal effect by foliage application, Wagner pot (Table 18, symbol D); type: in vivo, chinese sprangletop (Leptochloa chinensis)
Summary of the method: as §4

barnyard grass [13] = test: Test Example 5: herbicidal effect by foliage application, plastic box (Table 20, symbol H); type: in vivo, barnyard grass (Echinochloa crus-galli); conditions: foliage application, 320 g/ha, three weeks after application
Summary of the method: as §3

green foxtail [14] = test: Test Example 5: herbicidal effect by foliage application, plastic box (Table 20, symbol G); type: in vivo, green foxtail (Setaria viridis); conditions: foliage application, 320 g/ha, three weeks after application
Summary of the method: as §3

chickweed [15] = test: Test Example 5: herbicidal effect by foliage application, plastic box (Table 20, symbol P); type: in vivo, common chickweed (Stellaria media); conditions: foliage application, 320 g/ha, three weeks after application
Summary of the method: as §3

barnyard grass [16] = test: Test Example 4: herbicidal effect by soil treatment (Table 19, symbol H); type: in vivo, barnyard grass (Echinochloa crus-galli); conditions: amount of applied herbicide 320 g/ha
Summary of the method: as §1

lambsquarters [17] = test: Test Example 4: herbicidal effect by soil treatment (Table 19, symbol O); type: in vivo, lambsquarters (Chenopodium album); conditions: amount of applied herbicide 320 g/ha
Summary of the method: as §1

windgrass [18] = test: Test Example 4: herbicidal effect by soil treatment (Table 19, symbol L); type: in vivo, windgrass (Apera spica-venti); conditions: amount of applied herbicide 320 g/ha
Summary of the method: as §1

persian speedwell [19] = test: Test Example 5: herbicidal effect by foliage application, plastic box (Table 20, symbol R); type: in vivo, Persian speedwell (Veronica persica); conditions: foliage application, 320 g/ha, three weeks after application
Summary of the method: as §3

southern crabgrass [20] = test: Test Example 4: herbicidal effect by soil treatment (Table 19, symbol F); type: in vivo, southern crabgrass (Digitaria ciliaris); conditions: amount of applied herbicide 320 g/ha
Summary of the method: as §1

windgrass [21] = test: Test Example 5: herbicidal effect by foliage application, plastic box (Table 20, symbol L); type: in vivo, windgrass (Apera spica-venti); conditions: foliage application, 320 g/ha, three weeks after application
Summary of the method: as §3

barnyard grass [22] = test: Test Example 3: herbicidal effect by foliage application, Wagner pot (Table 18, symbol H); type: in vivo, barnyard grass (Echinochloa crus-galli)
Summary of the method: as §4

redroot pigweed [23] = test: Test Example 4: herbicidal effect by soil treatment (Table 19, symbol N); type: in vivo, redroot pigweed (Amaranthus retroflexus); conditions: amount of applied herbicide 320 g/ha
Summary of the method: as §1

velvetleaf [24] = test: Test Example 5: herbicidal effect by foliage application, plastic box (Table 20, symbol M); type: in vivo, velvetleaf (Abutilon theophrasti); conditions: foliage application, 320 g/ha, three weeks after application
Summary of the method: as §3

false cleavers = test: Test Example 4: herbicidal effect by soil treatment (Table 19, symbol Q); type: in vivo, false cleavers (Galium spurium); conditions: amount of applied herbicide 320 g/ha
Summary of the method: as §1

chickweed [25] = test: Test Example 4: herbicidal effect by soil treatment (Table 19, symbol P); type: in vivo, common chickweed (Stellaria media); conditions: amount of applied herbicide 320 g/ha
Summary of the method: as §1

[26] = amount of applied herbicide 320 g/ha

COc1ccccc1-c1sc2ccc(F)cc2c1-c1c(O)c(C)nn(CC#N)c1=O [2-431]
herbicidal effect, K: Italian ryegrass (Italian ryegrass [1]): 0 (Herbicidal rate of 5% or less (almost no effect))
Herbicidal effect, B: Japanese bulrush (Japanese bulrush): 0 (Herbicidal rate of 5% or less (almost no effect))
J: blackgrass, herbicidal effect grade (blackgrass [2]): 0 (Herbicidal rate of 5% or less (almost no effect))
herbicidal effect, G: green foxtail (green foxtail [3]): 0 (Herbicidal rate of 5% or less (almost no effect))
O: lambsquarters, herbicidal effect grade (lambsquarters [4]): 1 (Herbicidal rate of 5% or more and less than 20%)
herbicidal effect on E: rice flat sedge (rice flat sedge; [26]): 5 (Herbicidal rate of 90% or more (almost completely withered))
herbicidal effect, J: blackgrass (blackgrass [5]): 0 (Herbicidal rate of 5% or less (almost no effect))
I: wild oat, herbicidal effect grade (wild oat [6]): 0 (Herbicidal rate of 5% or less (almost no effect))
K: Italian ryegrass, herbicidal effect grade (Italian ryegrass [7]): 0 (Herbicidal rate of 5% or less (almost no effect))
Herbicidal effect, C: oval-leafed pondweed (oval-leafed pondweed): 0 (Herbicidal rate of 5% or less (almost no effect))
Herbicidal effect, A: late watergrass (late watergrass): 2 (Herbicidal rate of 20% or more and less than 40%)
herbicidal effect, I: wild oat (wild oat [8]): 0 (Herbicidal rate of 5% or less (almost no effect))
N: redroot pigweed, herbicidal effect grade (redroot pigweed [9]): 3 (Herbicidal rate of 40% or more and less than 70%)
F: southern crabgrass, herbicidal effect grade (southern crabgrass [10]): 0 (Herbicidal rate of 5% or less (almost no effect))
herbicidal effect, R: persian speedwell (persian speedwell [11]): 0 (Herbicidal rate of 5% or less (almost no effect))
herbicidal effect, M: velvetleaf (velvetleaf [12]): 1 (Herbicidal rate of 5% or more and less than 20%)
herbicidal effect on D: Chinese sprangletop (Chinese sprangletop; [26]): 3 (Herbicidal rate of 40% or more and less than 70%)
H: barnyard grass, herbicidal effect grade (barnyard grass [13]): 0 (Herbicidal rate of 5% or less (almost no effect))
G: green foxtail, herbicidal effect grade (green foxtail [14]): 0 (Herbicidal rate of 5% or less (almost no effect))
P: chickweed, herbicidal effect grade (chickweed [15]): 5 (Herbicidal rate of 90% or more (almost completely withered))
herbicidal effect, H: barnyard grass (barnyard grass [16]): 0 (Herbicidal rate of 5% or less (almost no effect))
herbicidal effect, O: lambsquarters (lambsquarters [17]): 1 (Herbicidal rate of 5% or more and less than 20%)
herbicidal effect, L: windgrass (windgrass [18]): 0 (Herbicidal rate of 5% or less (almost no effect))
R: persian speedwell, herbicidal effect grade (persian speedwell [19]): 3 (Herbicidal rate of 40% or more and less than 70%)
herbicidal effect, F: southern crabgrass (southern crabgrass [20]): 0 (Herbicidal rate of 5% or less (almost no effect))
L: windgrass, herbicidal effect grade (windgrass [21]): 0 (Herbicidal rate of 5% or less (almost no effect))
herbicidal effect on H: barnyard grass (barnyard grass [22]; [26]): 5 (Herbicidal rate of 90% or more (almost completely withered))
herbicidal effect, N: redroot pigweed (redroot pigweed [23]): 5 (Herbicidal rate of 90% or more (almost completely withered))
M: velvetleaf, herbicidal effect grade (velvetleaf [24]): 2 (Herbicidal rate of 20% or more and less than 40%)
herbicidal effect, Q: false cleavers (false cleavers): 0 (Herbicidal rate of 5% or less (almost no effect))

Cc1nn(C)c(=O)c(-c2c(-c3ccc(OC(F)F)cc3)sc3cc(F)c(F)cc23)c1O [5-084]
K: Italian ryegrass, herbicidal effect grade (Italian ryegrass [1]): 0 (Herbicidal rate of 5% or less (almost no effect))
Herbicidal effect, B: Japanese bulrush (Japanese bulrush): 2 (Herbicidal rate of 20% or more and less than 40%)
herbicidal effect on blackgrass (J) (blackgrass [2]): 4 (Herbicidal rate of 70% or more and less than 90%)
G: green foxtail, herbicidal effect grade (green foxtail [3]): 2 (Herbicidal rate of 20% or more and less than 40%)
herbicidal effect on lambsquarters (O) (lambsquarters [4]): 5 (Herbicidal rate of 90% or more (almost completely withered))
herbicidal effect on rice flat sedge (E) (rice flat sedge; 320 g/ha): 3 (Herbicidal rate of 40% or more and less than 70%)
J: blackgrass, herbicidal effect grade (blackgrass [5]): 0 (Herbicidal rate of 5% or less (almost no effect))
herbicidal effect on wild oat (I) (wild oat [6]): 3 (Herbicidal rate of 40% or more and less than 70%)
P: chickweed, herbicidal effect grade (chickweed [25]): 0 (Herbicidal rate of 5% or less (almost no effect))
herbicidal effect on Italian ryegrass (K) (Italian ryegrass [7]): 5 (Herbicidal rate of 90% or more (almost completely withered))
Herbicidal effect, C: oval-leafed pondweed (oval-leafed pondweed): 0 (Herbicidal rate of 5% or less (almost no effect))
Herbicidal effect, A: late watergrass (late watergrass): 3 (Herbicidal rate of 40% or more and less than 70%)
I: wild oat, herbicidal effect grade (wild oat [8]): 0 (Herbicidal rate of 5% or less (almost no effect))
herbicidal effect on southern crabgrass (F) (southern crabgrass [10]): 4 (Herbicidal rate of 70% or more and less than 90%)
R: persian speedwell, herbicidal effect grade (persian speedwell [11]): 3 (Herbicidal rate of 40% or more and less than 70%)
M: velvetleaf, herbicidal effect grade (velvetleaf [12]): 4 (Herbicidal rate of 70% or more and less than 90%)
herbicidal effect on Chinese sprangletop (D) (Chinese sprangletop; 320 g/ha): 0 (Herbicidal rate of 5% or less (almost no effect))
herbicidal effect on barnyard grass (H) (barnyard grass [13]): 2 (Herbicidal rate of 20% or more and less than 40%)
herbicidal effect on green foxtail (G) (green foxtail [14]): 4 (Herbicidal rate of 70% or more and less than 90%)
H: barnyard grass, herbicidal effect grade (barnyard grass [16]): 1 (Herbicidal rate of 5% or more and less than 20%)
O: lambsquarters, herbicidal effect grade (lambsquarters [17]): 5 (Herbicidal rate of 90% or more (almost completely withered))
L: windgrass, herbicidal effect grade (windgrass [18]): 5 (Herbicidal rate of 90% or more (almost completely withered))
herbicidal effect on persian speedwell (R) (persian speedwell [19]): 5 (Herbicidal rate of 90% or more (almost completely withered))
F: southern crabgrass, herbicidal effect grade (southern crabgrass [20]): 0 (Herbicidal rate of 5% or less (almost no effect))
herbicidal effect on windgrass (L) (windgrass [21]): 5 (Herbicidal rate of 90% or more (almost completely withered))
herbicidal effect on barnyard grass (H) (barnyard grass [22]; 320 g/ha): 4 (Herbicidal rate of 70% or more and less than 90%)
N: redroot pigweed, herbicidal effect grade (redroot pigweed [23]): 5 (Herbicidal rate of 90% or more (almost completely withered))
herbicidal effect on velvetleaf (M) (velvetleaf [24]): 5 (Herbicidal rate of 90% or more (almost completely withered))
Q: false cleavers, herbicidal effect grade (false cleavers): 2 (Herbicidal rate of 20% or more and less than 40%)
